The results in this text go back to patent US11865102B2, “Cannabidiol preparations and its uses” (GW Research Limited, priority 2018, dated 2024).

Experiment [1] has as its system sub-chronic PCP-induced deficit in novel object recognition. Put plainly: Novel object recognition (NOR) test after sub-chronic PCP. It is filed as in vivo. Conditions: rat dose multiplied by 0.16 (FDA dose conversion guidance). The procedure: Female hooded-Lister rats were used for this experiment. Rats were housed in groups of 5 under standard laboratory conditions under a 12 hr light: dark cycle, with lights on at 0700 hr. Testing was carried out in the light phase. Rats were randomly assigned to two treatment groups and treated with vehicle, n=20 (distilled water, i.p.) or Phencyclidine hydrochloride (PCP), n=100 (2 mg/kg, i.p. twice daily for 7-days). PCP was dissolved in distilled water. This was followed by a 7-day wash out period before the rats were tested following acute treatment with CBD, risperidone or vehicle. […]
Following the 3 minute habituation period, the rats are given two 3 minute trials (T1 and T2) which were separated by a 1 minute inter-trial interval in the home cage during which the objects were changed. Behavior in all trials was recorded on video for subsequent blind scoring. […]
The exploration time(s) of each object (A, B, familiar and novel) in each trial were recorded using two stopwatches and the following factors were calculated: total exploration time of both objects in the acquisition trial, total exploration time of both objects in the retention trial. Habituation of exploratory activity included the exploration time, as measured by the number of lines crossed, for both trials.
All data were assessed for normality using D'Agostino and Pearson normality test. […]

The test system of experiment [2] is human iPSC-derived cerebral cortical neural stem cells (hNSCs). Put plainly: Neurogenesis and neuronal differentiation of hNSCs (MAP2 immunocytochemistry). In kind it is cell-based. Conditions: 0.1 and 1 μM, 3 or 5 days. How it is done: Human iPSC-derived cerebral cortical neural stem cells (hNSCs) (Axol Bioscience Inc., UK) were cultured as monolayers at a density of 1.010^4 cells/cm^2 on 100 mm diameter Petri dishes. The cells were collected from their original cryovial, suspended in Plating-XF Medium and plated on Petri dishes coated with SureBondXF 1× working solution prepared in D-PBS (without calcium or magnesium). hNSCs were incubated at 37° C. and 5% CO2 and 24 hours after of incubation, the plating medium was replaced with fresh Neural Expansion-XF Medium supplemented with the growth factors Recombinant Human EGF and Recombinant Human FGF2 (final concentration of 20 ng/mL (1×) of FGF2 and EGF). The cultures were re-fed with fresh Neural Expansion-XF supplemented with EGF and FGF2 every two days. When the hNSCs reached approximately 80% confluence, they were prepared for treatment. […]
Digital Leica LAS AF 2.2.0 software (Live Data Mode system) was used for counting Map2ab+DAPI+ cells. […] For each experimental condition, cells from 3 different tubes were each analyzed in triplicate and 3 frames were collected at 20× magnification. Data were analyzed with GraphPad Prism 6 software, version 6.05 (GraphPad, Inc.) and are expressed as mean±SEM. Statistical differences among groups were determined by two-way ANOVA followed by post hoc Bonferroni tests for comparison among means. […]

Experiment [3] deals with MES-induced tonic seizures. Put plainly: Maximal electroshock seizure (MES) test. It is filed as in vivo. Conditions: Mus musculus, ip, i.p. 60 minutes prior to MES, male C57Bl6 mice, sigmoidal curve, constant top, read-out: ED50 protecting 50% of mice against MES-induced tonic seizures. How it is done:
This study was performed using male C57Bl6 mice, weighing between 23.6-31.2 g, which were purchased from a licensed breeder (Charles River, UK). Naïve mice were acclimatized to the procedure room in their home cages, with food and water available ad libitum. Animals were housed in groups of 2-3, in standard caging on a 12 hr/12 hr light-dark cycle. All animals were tail marked and weighed at the beginning of the study. Animals were randomly assigned to vehicle or treatment groups.
The following drugs were used in this study: synthetic CBD (SYN) and botanically derived purified CBD (BOT). The control vehicle used was (1:1:18), which was 5% Ethanol, 5% Kolliphor, 90% saline, and has been used extensively throughout similar seizure tests. All drugs were dissolved in the control vehicle for comparison. Animals were dosed (10 ml/kg) i.p. at 60 minutes prior to the administration of the maximal electroshock seizure (IVIES) test. In addition to the vehicle group, the dosage groups used for each treatment and included doses of 10, 50, 100 (Experiment 1 only), 150 and 200 mg/kg for CBD (SYN) and CBD (BOT). The number of animals in each of these groups were 10 (n=10).
Two separate experiments were undertaken using two different batches of the botanically derived purified CBD. […]
Background: In the maximal electroshock model the usual endpoint is tonic extension of the hind limbs.

Read-outs that look alike come from different tables or passages of the source.

As a reminder, the ED50 is the dose that gives a 50% effect, or the effect in half of the subjects. For the compound `C=C(C)[C@@H]1CCC(C)=C[C@H]1c1c(O)cc(CCCCC)cc1O` [Synthetic CBD, 2-[(1R,6R)-3-Methyl-6-(1-methylethenyl)-2-cyclohexen-1-yl]-5-pentyl-1,3-benzenediol], in experiment [1], the “Human equivalent of the rat MED” value stood at 1.6 mg/kg/day. The “Effect on neurogenesis and neuronal differentiation of hNSCs relative to vehicle-treated cells” value in experiment [2] is “did not have a significant effect”. For the same compound, the ED50 in experiment [3] (Experiment 1) is 77.6 mg/kg; in experiment [3] (Experiment 2) it was 77.4 mg/kg.
